Assay results from patent US6943178B2 (Wyeth, priority 2001, dated 2005).
Structures can show the parent of a compound that is named as a salt. Where two headings read alike, the source gives them in different places.

Legend:
human 5-HT1A receptors = biological target: T1, human 5-HT1A receptors (Homo sapiens, UniProt P08908); assay: [3H] 8-OHDPAT displacement, 5-HT1A receptor affinity; assay type: binding
T1 construct: expressed in transfected cells; host or cells: CHO cells
T1 sequence (P08908 1-422): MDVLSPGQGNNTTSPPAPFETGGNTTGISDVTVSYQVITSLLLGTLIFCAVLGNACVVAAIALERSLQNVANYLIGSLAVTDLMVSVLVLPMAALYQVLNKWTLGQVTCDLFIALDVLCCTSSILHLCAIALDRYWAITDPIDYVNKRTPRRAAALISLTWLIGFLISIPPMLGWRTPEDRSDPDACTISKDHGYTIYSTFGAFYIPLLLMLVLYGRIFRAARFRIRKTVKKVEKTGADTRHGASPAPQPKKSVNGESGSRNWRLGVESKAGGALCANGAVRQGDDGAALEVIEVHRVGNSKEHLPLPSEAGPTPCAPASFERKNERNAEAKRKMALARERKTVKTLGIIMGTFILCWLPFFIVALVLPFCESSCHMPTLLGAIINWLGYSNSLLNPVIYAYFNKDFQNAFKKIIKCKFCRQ
From the text: High affinity for the serotonin 5-HT1A receptor was established by testing the claimed compound's ability to displace [^3H] 8-OHDPAT (dipropylaminotetralin) from the 5-HT1A serotonin receptor following a modification of the procedure of Hall et al., J. Neurochem. 44, 1685 (1985) which utilizes CHO cells stably transfected with human 5-HT1A receptors.

serotonin transporter = biological target: T2, serotonin transporter (Rattus norvegicus, UniProt P31652); assay: 3H-paroxetine displacement, serotonin transporter affinity; assay type: binding
T2 construct: displace ^3H-paroxetine from male rat frontal cortical membranes; from tissue; host or cells: male rat frontal cortex membranes

[1] = biological target: T3, cloned human 5-HT1A receptors (Homo sapiens, UniProt P08908); assay: 35S-GTPγS binding assay, 5-HT1A antagonist activity; assay type: biochemical
T3 construct: expressed in transfected cells
T3 sequence (P08908 1-422): T1 sequence (P08908 1-422)
Procedure: Antagonist activity at 5-HT1A receptors was established by using a ^35S-GTPγS binding assay similar to that used by Lazareno and Birdsall (Br. J. Pharmacol. 109: 1120, 1993), in which the test compound's ability to affect the binding of ^35S-GTPγS to membranes containing cloned human 5-HT1A receptors was determined. Agonists produce an increase in binding whereas antagonists produce no increase but rather reverse the effects of the standard agonist 8-OHDPAT. The test compound's maximum inhibitory effect is represented as the Imax, while its potency is defined by the IC50.

[2] = 35S-GTPγS binding, reversal of the effects of the standard agonist 8-OHDPAT
[3] = 35S-GTPγS binding, reversal of the effects of the standard agonist 8-OHDPAT, read-out: 5-HT1A Function IC50

T2 sequence (P31652 whole entry): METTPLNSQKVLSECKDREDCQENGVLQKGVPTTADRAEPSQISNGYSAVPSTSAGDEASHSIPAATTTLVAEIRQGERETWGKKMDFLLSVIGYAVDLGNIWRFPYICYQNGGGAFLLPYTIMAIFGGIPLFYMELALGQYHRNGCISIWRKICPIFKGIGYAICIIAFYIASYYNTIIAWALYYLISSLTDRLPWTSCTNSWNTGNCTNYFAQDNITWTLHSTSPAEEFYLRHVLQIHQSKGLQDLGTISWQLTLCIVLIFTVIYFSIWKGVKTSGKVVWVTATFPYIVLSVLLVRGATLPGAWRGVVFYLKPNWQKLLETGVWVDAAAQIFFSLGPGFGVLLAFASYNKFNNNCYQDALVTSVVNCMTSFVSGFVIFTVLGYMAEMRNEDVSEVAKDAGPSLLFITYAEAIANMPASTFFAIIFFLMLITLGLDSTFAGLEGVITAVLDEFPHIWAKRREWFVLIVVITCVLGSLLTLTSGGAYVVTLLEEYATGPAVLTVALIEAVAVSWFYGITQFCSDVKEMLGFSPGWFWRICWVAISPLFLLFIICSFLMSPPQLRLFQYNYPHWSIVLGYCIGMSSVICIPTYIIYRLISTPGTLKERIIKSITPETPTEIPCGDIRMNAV

SMILES | melting point | Ki (human 5-HT1A receptors) | Ki (serotonin transporter) | IC50 [1] | 5-HT1A Function Imax (maximum inhibitory effect) [1, 2] | IC50 [1, 3] | Ki (human 5-HT1A receptors; displacement of [3H] 8-OHDPAT, CHO cells stably transfected with human 5-HT1A receptors, read-out: 5-HT1A Receptor Affinity KI)
O=c1ccoc2c3c(ccc12)OC(CN1CC=C(c2c[nH]c4ccc(F)cc24)CC1)CO3 (stereo not drawn) (as salt: fumarate) (hydrate or solvate) [Example 1, 3-[4-(5-Fluoro-1H-indol-3-yl)-3,6-dihydro-2H-pyridin-1-ylmethyl]-2,3-dihydro-7H-pyrano[2,3-f][1,4]benzodioxin-7-one] | 106 to 108 °C | – | – | – | – | – | –
Fc1ccc2[nH]cc(C3=CCN(CC4COc5ccc6c(c5O4)OCCC6)CC3)c2c1 (stereo not drawn) (as salt: oxalate) [Example 2, 5-Fluoro-3-[1,2,3,6-tetrahydro-1-[(2,3,8,9-tetrahydro-7H-pyrano[2,3-f][1,4]benzodioxin-2-yl)methyl]-4-pyridinyl]-1H-indole] | 146 to 148 °C | – | – | – | – | – | –
C1=C(c2c[nH]c3ccccc23)CCN(CC2COc3ccc4c(c3O2)OCCC4)C1 (stereo not drawn) (as salt: oxalate) [Example 4, 3-{1-(2,3,8,9-Tetrahydro-7H-[1,4]dioxino[2,3-h]chromen-2-ylmethyl)-1,2,3,6-tetrahydropyridin-4-yl}-1H-indole] | 140 °C | – | – | – | – | – | –
O=c1ccoc2c3c(ccc12)OC[C@H](CN1CC=C(c2c[nH]c4ccc(F)cc24)CC1)O3 [Example 1] | – | 119 nM | 2.69 nM | 2.37 nM | 100 | – | –
Fc1ccc2[nH]cc(C3=CCN(CC4COc5ccc6c(c5O4)OCCC6)CC3)c2c1 (stereo not drawn) [Example 2, 5-Fluoro-3-[1,2,3,6-tetrahydro-1-[(2,3,8,9-tetrahydro-7H-pyrano[2,3-f][1,4]benzodioxin-2-yl)methyl]-4-pyridinyl]-1H-indole] | – | 27.6 nM | 2.57 nM | – | 100 | 0.56 nM | –
O=C1CCOc2c1ccc1c2OC(CN2CC=C(c3c[nH]c4ccccc34)CC2)CO1 (stereo not drawn) [Example 3, 3-[4-(1H-indol-3-yl)-3,6-dihydro-2H-pyridin-1-ylmethyl]-2,3,6,7-tetrahydro-1,4,5-trioxa-phenanthren-8-one] | 210 °C | – | 2.74 nM | – | – | – | 156 nM
C1=C(c2c[nH]c3ccccc23)CCN(CC2COc3ccc4c(c3O2)OCCC4)C1 (stereo not drawn) [Example 4, 3-{1-(2,3,8,9-Tetrahydro-7H-[1,4]dioxino[2,3-h]chromen-2-ylmethyl)-1,2,3,6-tetrahydropyridin-4-yl}-1H-indole] | – | 44.1 nM | 0.9 nM | – | 87.0 | 0.38 nM | –
